Test results from patent US10183015B2, “Heterocyclic compounds and methods of use” (Medivation Technologies LLC, priority 2015, dated 2019).
Where “and” joins values, the source holds several entries; their conditions need not be identical. Equal entries are not always repeated.

Legend:
[1] = Short-term Paigen-diet NASH mouse model: body weight, food intake, mortality; assay type: in vivo
Excerpt: Results. […] Mice were maintained on specific diet and were sacrificed after 9 days of diet.

[2] = system: diet-induced NASH obese insulin resistant mice; assay: DIN mouse model: NAS scores; assay type: in vivo; set-up: total / steatosis / inflammation / fibrosis / hepatocyte ballooning: scale not given here
Procedure: NAFLD score analysis. A 0.5 cm^3 piece of liver was fixed in 10% formalin for 48-72h, stored in ethanol 70° at 4° C., and processed for eosin/hematoxylin staining and NAFLD score analysis. One section (thickness 3-5 μm) per block was deposited on Superfrost+slides for hematoxylin-eosin staining. Individual slides having a single hepatic lobe section stained with H&E were digitized using a Nanozoomer from Hamamatsu. Sections were evaluated with knowledge of groups. Each section was evaluated and individually scored. A NAFLD scoring system (NAS) adapted from Kleiner et al. (Hepatology 41, 1313-21, 2005), Wu et al. (BMC Vet. Res. 10, 162, 2014), and Lee et al. (J. Lipid Res. 48, 1885-96, 2007). A total of four variables were qualitatively assessed and ranked with a score: (1) hepatocellular steatosis, (2) liver inflammation, (3) lobular fibrosis, and (4) hepatocyte ballooning.
(§1) Male C57Bl/6J mice (8 weeks old) were housed in enriched ventilated cages (31×12.5×12.7 cm) throughout the experimental phase. Animals' cages litters were changed at least once a week. Animal were housed 5 per cage on inverted 12-hour light cycle (at 09:00 am lights off), 22±2° C. and 55±10% relative humidity. The acclimation period was 20 days. During the acclimation period, all mice were fed a standard diet (RM1 (E) 801492, SDS) and tap water ad libitum. After the acclimation period, mice were fed with the DIN diet (60% fat, cholesterol enriched) and fructose-enriched tap water ad libitum until the end of the experiment.
(§2) At 6 weeks of diet, mice were 4-hour fasted (09:00 am to 1:00 pm) and blood (150 μl/EDTA) was collected at 01:00 pm by retro-orbital bleeding under isoflurane anesthesia. Mice were then allocated in 2 homogenous groups (n=12/group) according to their plasma levels of ALT (average levels: 685U/L), AST (average levels: 627U/L) and HOMA-IR index (average value: 4.7), into 2 homogenous groups (see values at day 0 in Tables 15A and 15B ALT/AST and Tables 16A and 16B for HOMA-IR). Mice were then treated once daily by oral gavage with vehicle (Group 1) or Compound #37 at 20 mg/kg (Group 2) for 70 days.
Each section was evaluated and individually scored using the modified NAFLD scoring system described above.

MCP-1 = assay: DIN mouse model: hepatic MCP-1 levels; assay type: in vivo; conditions: 20 mg/kg; for MCP1: hepatic
Procedure: as §1, §2

[3] = 28-day repeat-dose toxicity study in healthy rats: plasma exposure (AUC24h); assay type: in vivo, rat; conditions: day 28
Procedure: In the repeat-dose toxicity study in rats (Compound #37P018), Compound #37 was given at 0 (vehicle control), 50, 100/75, and 200/150 mg/kg/day for 28 days; some animals from each dose group continued into a 28-day recovery period. After 28 days of treatment, liver neutral lipids from treated and control animals were analyzed with Oil Red O staining.
The more pronounced effects in female rats compared with male rats is consistent with the observed higher plasma exposure (>4-fold higher area under the curve over 24 hours [AUC24h]) at day 28 in females compared with males. Evidence of an effect of Compound #37 on leptin concentrations was also observed in female rats in a dose-dependent manner. As animals gain weight, leptin concentrations naturally increase due to its origin from adipose tissue. Female rats treated with Compound #37 had lower concentrations of leptin compared with the vehicle control group during the treatment period (day 4 and day 28), which was not observed after treatment termination and recovery (day 56) (FIG. 7).

INSIG1 = assay: Short-term Paigen-diet NASH mouse model: hepatic INSIG1 gene expression (RT-qPCR); assay type: in vivo; conditions: liver, 21 days; for DDct: INSIG1 Dct relative to vehicle mean; for Dct: INSIG1 minus 18S; for 2DDct: INSIG1 relative expression to vehicle group, normalized to 18S; for INSIG1: raw RT-qPCR value
Procedure: To investigate whether Compound #37 prevents the development of pathology associated with NASH and steatosis in an acute exploratory disease model, a study was conducted using a diet-induced acute liver steatosis model in mice. As described below, in this study, C57BL/6J mice were initiated on the Paigen diet and simultaneously treated with Compound #37 (5, 20, and 40 mg/kg/day) or vehicle control (20% HPβCD 10 mL/kg/day) by oral gavage for 21 days.
After acclimation, 8-week old male C57Bl/6J mice (Charles River) weighing about 25 g were randomized in 4 groups according their body weight and treated once daily around noon by oral gavage with vehicle, or Compound #37 at various for 21 days as follows: Group 1: vehicle-20% (2-hydroxypropyl)-β-cyclodextrin (HP-β-CD) (n=10); Group 2: Compound #37, 5 mg/kg (n=10) Group 3: Compound #37, 20 mg/kg (n=10) Group 4: Compound #37, 40 mg/kg (n=10). During the treatment period, body weight and food intake (measured over 24h) were measured 3 times per week and once a week, respectively. During the acclimation, all mice were fed a standard diet (Special Diets Services RM1 (E), product no. 801492) and tap water ad libitum. After the acclimation period, mice were fed until the end of the experiment with a 60% high fat Paigen diet (60 kcal % fat, 1.25% cholesterol, and 0.5% cholate; D11061901, Research Diet) and tap water ad libitum.
Gene expression analysis. Hepatic expression levels of genes involved in lipid metabolism (FAS, SREBP1, ACC1, SCD1), cholesterol metabolism (HMG-CoAR, LDLR), SREBP proteolysis (SCAP, INSIG1), ER stress (PERK), oxidative stress (NRF2), inflammation (MCP-1), and fibrosis (collagen 1α1) were quantified by RTqPCR. Expression level was normalized to 18S gene expression and relative expression to vehicle group was calculated with the […] method.

[4] = NAS score, 20 mg/kg group, mean, n 11
[5] = Compound #37 5 mg/kg, group mean, n=10
[6] = Compound #37 5 mg/kg, individual animals, 5 mg/kg
[7] = Compound #37 20 mg/kg, group mean, n=6
[8] = Compound #37 20 mg/kg, individual animals, 20 mg/kg

In the case of `CC(C)Cc1cc(-c2nc(-c3ccc(NS(=O)(=O)C(F)(F)F)cc3Cl)cs2)ccn1` [Compound 37, N-(3-chloro-4-(2-(2-isobutylpyridin-4-yl)thiazol-4-yl)phenyl)-1,1,1-trifluoromethanesulfonamide], the “differences in weight vs vehicle control at end of 3-week dosing period” value ([1]; 5 mg/kg/day and 20 mg/kg/day, surviving animals) is reported as “no differences in weight”, the mice died ([1]; 20 mg/kg/day, group of 10 mice (1 on day 7, 2 on day 9, 1 on day 11)) is reported as 4 mice and the “death of additional mice by day 9” value ([1]; 40 mg/kg/day, group of 10 mice) is reported as 3 mice. For the same compound, the “death of mice by day 7” value ([1]; 40 mg/kg/day, group of 10 mice) was 3 mice, the mean weight loss ([1]; 40 mg/kg/day, over 4 days of treatment) was > 20% and the mice died ([1]; mouse, in vivo) was “No mice died”. The inflammation score increase ([2]; 20 mg/kg, 70 days, p<0.05 vs. vehicle) was 81%, the fibrosis score reduction ([2]; 20 mg/kg, 70 days, p=0.055 vs. vehicle) was 45% and the total ([2]; NAS score, 20 mg/kg group, individual animal, 20 mg/kg) was 7 and 8 and 3 (2×) and 5 (2×) and 6 (4×) and 4. For the same compound, the fibrosis [2, 4] was 0.64, the hepatocyte ballooning [2, 4] was 1.91 and the inflammation [2, 4] was 0.91. The steatosis [2, 4] was 1.91, the total [2, 4] was 5.36 and the “Hepatic MCP-1 levels reduction” value (MCP-1; 70 days, p<0.001 vs. vehicle) was 70%. For the same compound, the MCP1 (MCP-1; group mean, n 11) was 1.7 pg/mg liver, the MCP1 (MCP-1; individual animals) was 1.34 pg/mg liver and 1.53 pg/mg liver and 0.60 pg/mg liver and 2.54 pg/mg liver and 1.76 pg/mg liver and 1.72 pg/mg liver and 1.42 pg/mg liver and 1.21 pg/mg liver and 1.78 pg/mg liver and 1.90 pg/mg liver and 2.59 pg/mg liver and the “plasma exposure (AUC24h) in females compared with males” value [3] was > 4 fold. For the same compound, the DDct (INSIG1; [5]) was 0.28, the DDct (INSIG1; [6]) was −0.58 and 0.21 and 0.48 and −0.03 and 0.34 and 1.45 and 0.09 and 0.52 and 0.32 and 0.05 and the DDct (INSIG1; [7]) was 0.15. For the same compound, the DDct (INSIG1; [8]) was 0.5 and 0.75 and 0.51 and −0.67 and 0.62 and −0.76, the Dct (INSIG1; [5]) was 12 and the Dct (INSIG1; [6]) was 11.1 and 11.89 and 12.16 and 11.65 and 12.02 and 13.13 and 11.77 and 12.2 and 12 and 11.73. The Dct (INSIG1; [7]) was 11.8, the Dct (INSIG1; [8]) was 12.18 and 12.43 and 12.19 and 11.01 and 12.3 and 10.92 and the 2DDct (INSIG1; [5]) was 0.87. For the same compound, the 2DDct (INSIG1; [6]) was 1.5 and 0.87 and 0.72 and 1.02 and 0.79 and 0.37 and 0.94 and 0.7 and 0.8 and 0.97, the 2DDct (INSIG1; [7]) was 0.99 and the 2DDct (INSIG1; [8]) was 0.71 and 0.6 and 0.7 and 1.6 and 0.65 and 1.7. For the same compound, the INSIG1 (INSIG1; [5]) was 24.2, the INSIG1 (INSIG1; [6]) was 24.56 and 25 (2×) and 23.77 and 24.05 and 26.48 and 23.37 and 23.99 and 23.14 and 22.85 and the INSIG1 (INSIG1; [7]) was 24. For the same compound, the INSIG1 (INSIG1; [8]) was 25.09 and 24.72 and 24.39 and 24.04 and 23.79 and 22.18.
